Reference: US6455589B1, “Primary N-hydroxylamines” (The Regents of the University of California, priority 1999, dated 2002)
Where two headings read alike, the source gives them in different places.

Tests used:
IMR90 cells [1] = experiment: Replicative life span of IMR90 cells (gain in PDLs, delay of senescence); assay type: cell-based, human; settings: for Gain in PDLs: continuous cultivation, compared to control untreated cells
Protocol: Cultivating IMR90 cells in culture—Normal human […] fibroblasts (IMR90) cells were obtained from the Coriell Institute for Medical Research at a population doubling level (PDL) of 10.85. The PDLs were calculated as log2(D/Do), where D and Do are defined as the density of cells at the time of harvesting and seeding, respectively. Stock cultures were grown in 100 mm Corning tissue culture dishes containing 10 ml of Dulbecco's modified Eagle's medium (DMEM) supplemented with 10% (V/V) fetal bovine serum (Hyclone). Stock cultures were split once a week when near confluence. Cells were harvested by trypsinization for 5 min at 37° C., immediately collected in 5 ml complete DMEM, washed once with 5 ml complete DMEM and incubated for 10-15 min at 37° C. to allow the cells to recover.
To test the effect of hydroxylamines on replicative life span, IMR90 cells were seeded at 0.5×106 per 100 mm dish. N-hydroxylamines (N-t-butyl hydroxylamine, N-benzyl hydroxylamine, N-methyl hydroxyl- amine) were added either individually (final concentration 10 or 100 μM) or in a combination of all three N-hydroxylamines (30 μM each). The cultures were split after 7 days and seeded with fresh medium supplemented with the hydroxylamines described above. In other experiments the medium of the cultures was replaced after 3 days of seeding with fresh medium and with fresh N-hydroxylamines, the split was done as usual after 7 days from seeding. The effect of PBN on life span was tested as in (5).

[2] = Neuron loss following brain ischemia and reperfusion injury (Examples 14-16); set-up: species or system gerbils; settings: in vivo
Protocol: The test procedure is that reported by W. Cao, J. M. Carney, A. Duchon, R. A. Floyd and M. Chevion as “Oxygen free radical involvement in ischemia and reperfusion injury to brain, Neuroscience Letters, 88 (1988), 233. In the experiments a test compound is administered to groups of six gerbils i.p. as a single dose 30 min before 5 min bilateral carotid occlusion. The density of neuronal nuclei in a 100 micron is measured. Two controls are present—controls which receive no test compound and controls which receive no test compound and no brain ischemia. The compounds of the invention show advantages as compared to the prior art compounds.
The general method described above is used but the test compounds are administered i.p. as a single dose 30 min after reperfusion following 5 min ischemia.
Comparing the Subject Hydroxylamines With PBN to Determine the Relative Effectiveness for Protection of Neuronal Loss when Administered i.v. 60 min after Reperfusion Onset Following 5 min Ischemia in Gerbils Using the General Test Method Described Above

[3] = 8-arm maze test 24 hours following 5 min ischemia; assay type: in vivo; settings: 24 hours post 5 min ischemia, young adult gerbils
Protocol: In this experiment, young adult (3-4 months of age) gerbils are tested to determine their ability to perform an 8-arm maze test 24 hours following an ischemic event as described above As compared to nonischemic animals, when untreated they committed many more errors. PBN and subject hydroxyamines are administered to some of the test animals. Gerbils treated with high doses of the hydroxylamines have error levels indistinguishable from those of nonischemic animals.

[4] = Infarct volume following an ischemic event (Example 18); assay type: in vivo
Description: The Ability of the Subject Hydroxylamines to Reduce Infarct Volume Following an Ischemic Event While PBN and the hydroxylamines are both effective at low doses, at high doses hydroxylamines gave the best protection and PBN was toxic.

[5] = Lethality protection in aged gerbils from 10 min ischemia; assay type: in vivo; settings: given 30 min before 10 min ischemia
Protocol: In this study, subject hydroxylamines and PBN are compared for their ability to impart lethality protection (% survived) in aged gerbils (18-24 months of age, n=12/group) from 10 min ischemia when given 30 min before ischemia.

[6] = assay type: in vivo; settings: 560 mg/kg single i.p. dose
Protocol: An important advantage of the subject hydroxylamines as compared to PBN, is its markedly diminished toxicity. Acute lethality in C57BL/6L mice is determined based upon varying sizes of single i.p. doses of hydoxylamine. […] The hydroxlamines show no toxicity at doses nearly twenty times as great.

[7] = Depression in body temperature; assay type: in vivo, mice and gerbils; settings: 500 mg/kg
Protocol: Another undesirable systemic effect which has been observed in vivo with nitrone radical traps is a depression in body temperature. This toxicity can have serious health consequences and also can complicate diagnosis of other conditions. The subject hydroxylamines are administered to mice and gerbils at levels as high as 1000 mg/kg with no measurable temperature decrease. In contrast, PBN gives up to an 8° C. decrease in body temperature at a does of only 500 mg/kg.

[8] = test system: glutamine synthetase (GS); experiment: Protection of glutamine synthetase against the effects of βAP fragments; assay type: biochemical
Description: (§1) While the hydroxylamines and PBN each show the ability to protect GS and CK against the effects of βAP fragments, the hydroxyamines give complete protection and in fact can at least partly reverse the effects of oxidation. In contrast, PBN's effectiveness is quite limited as it asymptotically levels out at a substantially incomplete level of protection.

creatine kinase (CK) = experiment: Protection of creatine kinase against the effects of βAP fragments; assay type: biochemical
Description: as §1

in vivo = experiment: in vivo
Protocol: C57BL/6J and DBA/2J male mice (35-40 g) are tested for the acute lethal effects of adriamycin and the prevention of acute lethality by pretreatment doses of subject hydroxylamines. Mice are injected i.p with either saline or subject hydroxylamines 30 minutes prior to administration of adriamycin.

IMR90 cells [9] = settings: literature (5); cited from earlier work
[10] = in vivo; cited from earlier work
[11] = cited from earlier work
[12] = rat, in vivo; cited from earlier work
[13] = gerbils; cited from earlier work
[14] = rats; cited from earlier work
[15] = test system: mitochondrial preparations of cerebral cortex; settings: relatively high concentrations; cited from earlier work
[16] = 300 mg/kg, in combination with adriamycin

CC(C)(C)[N+]([O-])=Cc1ccccc1 [PBN, α-Phenyl-N-t-butyl nitrone]
Delay of senescence of IMR90 cells (in words) (IMR90 cells [1]): old solutions were more effective than fresh solutions | Gain in PDLs (IMR90 cells [1]; 200 μM): 2.4 PDLs | Gain in PDLs (IMR90 cells [1]; 800 μM): 14.8 PDLs | Concentration required to achieve nearly a similar gain in PDLs, relative to N-hydroxylamines (IMR90 cells [1]; PBN 800 μM vs N-hydroxylamines 100 μM): 8 times higher | Neuronal density in control gerbils without brain injury [2]: Neither PBN nor the subject hydroxylamines have an effect | Errors in 8-arm maze test [3]: less effective | Reduction of infarct volume / toxicity ([4]; high doses): toxic | Reduction of infarct volume ([4]; low doses): effective | Lethality protection (% survived) [5]: only partially effective | Acute toxicity [6]: significant toxicity | Decrease in body temperature [7]: ≤ 8 °C | Protection of GS against the effects of βAP fragments [8]: quite limited | Protection of CK against the effects of βAP fragments (creatine kinase (CK)): quite limited | Sedation (in vivo; 100 mg/kg, in combination with adriamycin): slight sedation | Combined toxicity (lethality) (in vivo; [16]): 10-20% | Sedation (in vivo; [16]): marked sedation | Shift in the adriamycin dose-effect curve (in vivo; pretreatment): slight shift to the right | Delay of senescence in IMR90 (IMR90 cells [9]): delays senescence | Age-related oxidative changes in the brains of old gerbils [10]: reverses | Senescence ([11]; normal mice): delays senescence | Senescence ([11]; senescence-accelerated mice): delays senescence | Mitochondrial decay in the liver of old rats [12]: reverses mitochondrial decay | Effect after oxidative damage from ischemia/reperfusion injury [13]: neuroprotective effect | Effect after oxidative damage from ischemia/reperfusion injury [14]: neuroprotective effect | Production of hydrogen peroxide [15]: reduces
